Data taken from patent publication US5827866A, “Peptidyl heterocycles useful in the treatment of thrombin related disorders” (Ortho Pharmaceutical Corporation, priority 1995, dated 1998).

Assay: Ex vivo bioavailability assay (i.v. and p.o.)
Design: species or system male rats
Conditions: rat, p.o. vs i.v.; drug in plasma extrapolated from thrombin inhibition
Protocol: Bioavailability was determined by an ex vivo assay which incorporated hydrolysis rates from drug administered both i.v. and p.o. In this assay male rats were prepared as described above with a teflon tube implanted in their femoral artery.
A standard curve was generated by adding of drug or vehicle (100 μL) to whole blood (900 μL) followed by incubating (5 min) and centrifuging to obtain plasma. The percentage of thrombin inhibition was calculated by comparing the V0 of the vehicle to that of the drug treated samples. Datum from several runs were normalized with a statistical package (SAS) to generate a standard curve.
The percentage of thrombin inhibition in the treated animals was calculated by comparing the V0 prior to treatment with the V0 obtained from samples collected after treatment. The percent inhibition was applied to the standard curve (generated above) using the statistical package (SAS) and the quantity of drug in the sample was extrapolated.
Bioavailability (Bioavail.) was calculated from the plots of the extrapolated drug in sample vs. time for both i.v. and p.o. administration using the following equation:
%Bioavail. =([…])×(area
under p.o. curve/area under curve i.v.)

Structure (SMILES) | Bloavail, [%]
CN[C@H](Cc1ccccc1)C(=O)N1CCC[C@H]1C(=O)N[C@@H](CCCNC(=N)N)C(=O)c1nc2ccccc2s1 [Compound 1, N-METHYL-D-PHENYLALANYL-N-[4-[(AMINOIMINOMETHYL)AMINO]-1S-[(BENXOTHIAZOL-2- YL)CARBONYL]BUTYL]-L-PROLINAMIDE] | 1.2

Assay: not given
Conditions: rat, in vivo, iv

Structure (SMILES) | t1/2 [min]
CN[C@H](Cc1ccccc1)C(=O)N1CCC[C@H]1C(=O)N[C@@H](CCCNC(=N)N)C(=O)c1nc2ccccc2s1 [Compound 1, N-METHYL-D-PHENYLALANYL-N-[4-[(AMINOIMINOMETHYL)AMINO]-1S-[(BENXOTHIAZOL-2- YL)CARBONYL]BUTYL]-L-PROLINAMIDE] | 19
CNC(Cc1ccccc1)C(=O)N1CCCC1C(=O)NC(CCCNC(=N)N)C(=O)c1nccs1 (centres unmarked) [Compound 4] | 16
CN[C@H](Cc1ccccc1)C(=O)N1CCC[C@H]1C(=O)N[C@@H](CCCNC(=N)N)C(=O)c1nc2ccc(C(=O)OC)cc2s1 [Compound 12] | 43
CN[C@H](Cc1ccccc1)C(=O)N1CCC[C@H]1C(=O)N[C@@H](CCCNC(=N)N)C(=O)c1nc2ccc(C(=O)O)cc2s1 [Compound 13] | 25
CN[C@H](Cc1ccccc1)C(=O)N1CCC[C@H]1C(=O)N[C@@H](CCCNC(=N)N)C(=O)c1nc2ccc(CO)cc2s1 [Compound 15] | 16
CN[C@H](Cc1ccccc1)C(=O)N1CCC[C@H]1C(=O)N[C@@H](CCCNC(=N)N)C(=O)c1nc2ccc(F)cc2s1 [Compound 17] | 8
CCOC(=O)c1csc(C(=O)[C@H](CCCNC(=N)N)NC(=O)[C@@H]2CCCN2C(=O)[C@@H](Cc2ccccc2)NC)n1 [Compound 19] | 14
CNC(Cc1ccccc1)C(=O)N1CCCC1C(=O)NC(CCCNC(=N)N)C(=O)c1nc2ccccc2[nH]1 (centres unmarked) [Compound 21] | 5
CN[C@H](CC1CCCCC1)C(=O)N1CCC[C@H]1C(=O)N[C@@H](CCCNC(=N)N)C(=O)c1nc2ccccc2s1 [Compound 29, N-METHYL-D-CYCLOHEXYLALANYL-N-[4-[(AMINOIMINOMETHYL)AMINO]-1S-[(BENXOTHIAZOL-2-YL)CARBONYL]BUTYL]-L-PROLINAMIDE] | 14
CN[C@H](Cc1c(F)c(F)c(F)c(F)c1F)C(=O)N1CCC[C@H]1C(=O)N[C@@H](CCCNC(=N)N)C(=O)c1nc2ccccc2s1 [Compound 30] | 6
CN[C@H](Cc1ccc(F)cc1)C(=O)N1CCC[C@H]1C(=O)N[C@@H](CCCNC(=N)N)C(=O)c1nc2ccccc2s1 [Compound 32, N-METHYL-D-(4-FLUOROPHENYL)ALANYL-N-[4-[(AMINOIMINOMETHYL)AMINO)-1S-[(BENXOTHIAZOL-2-YL)CARBONYL]BUTYL]-L-PROLINAMIDE] | 19
CNC(C(=O)N1CCCC1C(=O)NC(CCCNC(=N)N)C(=O)c1nc2ccccc2s1)c1ccccc1 [Compound 33, N-METHYL-D-PHENYLGLYCYL-N-[4-[(AMINOIMINOMETHYL)AMINO]-1S-[(BENXOTHIAZOL-2- YL)CARBONYL]BUTYL]-L-PROLINAMIDE] | 18
CC(=O)N[C@H](Cc1ccccc1)C(=O)N1CCC[C@H]1C(=O)N[C@@H](CCCNC(=N)N)C(=O)c1nc2ccccc2s1.O=C(O)C(F)(F)F [Compound 35] | 11
CN[C@@H](C(=O)N1CCC[C@H]1C(=O)N[C@@H](CCCNC(=N)N)C(=O)c1nc2ccccc2s1)C1CCCCC1 [Compound 37, N-METHYL-D-CYCLOHEXYLGLYCYL-N-[4-[(AMINOIMINOMETHYL)AMINO]-1S-[(BENXOTHIAZOL-2-YL)CARBONYL]BUTYL]-L-PROLINAMIDE] | 42
CN[C@H](Cc1ccccc1)C(=O)N1CCC[C@H]1C(=O)N[C@@H](CCCNC(=N)N)C(=O)c1nc2c(s1)CCCC2 [Compound 51] | 17
CN[C@H](Cc1ccccc1)C(=O)N1CCC[C@H]1C(=O)N[C@@H](CCCNC(=N)N)C(=O)c1nc2ccc3ccccc3c2s1 [Compound 52] | 8
CN[C@H](Cc1ccccc1)C(=O)N1CCC[C@H]1C(=O)N[C@@H](CCCNC(=N)N)C(=O)c1nc(C(=O)O)cs1 [Compound 54] | 15

Assay: Ex vivo i.v. assay for duration of action (time to half plasma elimination)
Conditions: rat, from slope of Vo vs. time of plasma thrombin inhibition
Protocol: An ex vivo assay was conducted to determine the duration of action of the compounds of Formula I. For this i.v. assay male rats (Long Evans, 350-500 g) were implanted with a teflon cannulae via the femoral artery while under anesthesia (pentobarbital i.p., 35 mg/kg). […] The animals were allowed to recover for at least 24 h after the surgical procedure.
The test compound was dispersed in water and delivered to the animal (0.25 mL) via the femoral vein. […] A plasma sample was obtained by centrifuging the blood at 10,000 rpm for 5 min. This sample is analyzed for thrombin inhibition using the chromogenic assay, described below.
Datum was collected over a 30 min period and the initial rate of substrate hydrolysis (V0 (mOD/min)) was calculated with an analysis program (Softmax, Molecular Devices).
The time to half plasma elimination (t 1/2) was calculated from the slope of Vo vs. time, using the following equation:

Structure (SMILES) | t1/2 [min]
CN[C@H](Cc1ccccc1)C(=O)N1CCC[C@H]1C(=O)N[C@@H](CCCNC(=N)N)C(=O)c1nc2ccc(O)cc2s1 [Compound 25] | 14
CNC(C(=O)N1CCC[C@H]1C(=O)N[C@@H](CCCNC(=N)N)C(=O)c1nc2ccccc2s1)c1ccccc1 (some centres unmarked) [Compound 34] | 26
